TGI data for 15 molecules are collected here from PubChem BioAssay (NCI).

Test systems include EKVX NSCLC; HCT-116 colon; K-562 leukemia; NCI-H226 lung; PC-3 prostate; SK-MEL-5 melanoma; SK-OV-3 ovarian; SNB-19 CNS; U251 CNS; UACC-62 melanoma.
What all share (assay): growth of human tumour cells (NCI), 48 h

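Briefly, cells in 96-well plates were exposed to five compound concentrations for 48 h, and endpoints were estimated by linear interpolation. TGI is the concentration that stops growth completely.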

As for `C=C1CC(Cn2cc(Br)c(=O)[nH]c2=O)(c2ccc(Br)cc2)OC1=O` (stereo unspecified), the TGI in the assay with EKVX NSCLC was 39.7 µM; in the assay with HCT-116 colon it was 2.75 µM; in the assay on K-562 leukemia, > 100 µM; with NCI-H226 lung, 36.6 µM; in the assay with PC-3 prostate it was 12.8 µM; with SK-MEL-5 melanoma, 7.5 µM. The TGI in the assay on SK-OV-3 ovarian was found to be 24.6 µM; with SNB-19 CNS, 30.4 µM; in the assay on U251 CNS, 28.8 µM; in the assay on UACC-62 melanoma it was 9.46 µM.
Take `CCCCN(CCCC)C1=Nc2ccccc2-n2c(nnc2C(=O)OCC)C1`: the TGI was > 100 µM in the assay on EKVX NSCLC; > 100 µM in the assay on HCT-116 colon; 86.9 µM in the assay on K-562 leukemia; > 100 µM in the assay with NCI-H226 lung; 51.6 µM with PC-3 prostate; 38.5 µM with SK-MEL-5 melanoma. Also, the TGI in the assay on SK-OV-3 ovarian, with SNB-19 CNS and in the assay on UACC-62 melanoma was > 100 µM in each case.
For `CCCCNC(=S)Nc1nc(C(=O)NNC(=S)NCc2ccccc2)cs1`, the TGI in the assay with EKVX NSCLC is > 100 µM; with HCT-116 colon, > 100 µM; in the assay with K-562 leukemia, > 100 µM; in the assay on NCI-H226 lung, > 100 µM; in the assay with PC-3 prostate it was > 100 µM; with SK-MEL-5 melanoma it was 70.2 µM. The TGI in the assay with SK-OV-3 ovarian, in the assay with U251 CNS and in the assay with UACC-62 melanoma was > 100 µM throughout.
On to `O=P1(N(CCCl)CCCl)NCCCO1` (stereo unspecified), for which the TGI in the assay with EKVX NSCLC was > 250 µM; with HCT-116 colon, > 250 µM; in the assay with K-562 leukemia, > 230 µM; in the assay on NCI-H226 lung it was > 250 µM; in the assay with PC-3 prostate it was > 250 µM; in the assay with SK-MEL-5 melanoma, > 250 µM. The TGI in the assay with SK-OV-3 ovarian, in the assay with SNB-19 CNS, in the assay with U251 CNS and in the assay with UACC-62 melanoma was > 250 µM throughout.
Consider `c1ccc2c(c1)ccc1nc(-c3ccc4c(c3)OCO4)c3c(c12)CCC3`, for which the TGI in the assay with EKVX NSCLC, with HCT-116 colon, with K-562 leukemia, in the assay on NCI-H226 lung, in the assay with PC-3 prostate and with SK-OV-3 ovarian was > 100 µM in each case. Further, the TGI with SNB-19 CNS, in the assay on U251 CNS and in the assay with UACC-62 melanoma was > 100 µM throughout.
With `O=C1CCc2cc3c(cc21)C(C(=O)O)CC3` (stereo unspecified), the TGI in the assay with EKVX NSCLC, with HCT-116 colon, with K-562 leukemia, in the assay on NCI-H226 lung, with PC-3 prostate and in the assay with SK-MEL-5 melanoma was > 100 µM throughout. The TGI with SK-OV-3 ovarian, in the assay on SNB-19 CNS, with U251 CNS and with UACC-62 melanoma was > 100 µM in each case.
For `CN(c1ccc(Cl)cc1)S(=O)(=O)c1ccccc1`, the TGI with EKVX NSCLC was > 100 µM; with HCT-116 colon it was > 100 µM; in the assay with K-562 leukemia, > 100 µM; in the assay with NCI-H226 lung it was > 100 µM; with PC-3 prostate, > 100 µM; in the assay with SK-MEL-5 melanoma it was 47 µM. For the same molecule, the TGI in the assay with SK-OV-3 ovarian, in the assay on SNB-19 CNS, in the assay on U251 CNS and with UACC-62 melanoma was > 100 µM throughout.
For the molecule `O=C1Sc2cc3ccccc3cc2C(=O)Sc2cc3ccccc3cc21`, the TGI was > 100 µM in the assay on EKVX NSCLC; 38.5 µM in the assay with HCT-116 colon; > 100 µM with K-562 leukemia; > 100 µM with NCI-H226 lung; > 100 µM with PC-3 prostate; > 100 µM in the assay with SK-MEL-5 melanoma. The TGI is > 100 µM in the assay with SK-OV-3 ovarian, > 100 µM with SNB-19 CNS, > 100 µM in the assay on U251 CNS and 67.2 µM in the assay with UACC-62 melanoma.
Regarding `CCOC(=O)c1nc2ccccc2nc1Nc1ccc(F)cc1`, the TGI was > 68.7 µM with EKVX NSCLC; > 69.3 µM in the assay on HCT-116 colon; > 100 µM with K-562 leukemia; > 63.7 µM with NCI-H226 lung; > 100 µM in the assay on PC-3 prostate; > 100 µM in the assay on SK-MEL-5 melanoma. For the same molecule, the TGI was 37.7 µM with SK-OV-3 ovarian, 46.6 µM with SNB-19 CNS, 70.6 µM in the assay on U251 CNS and > 100 µM with UACC-62 melanoma.
For `CCCCCCCCCCC[N+]1(Cc2ccccc2)CC2CCN(Cc3ccccc3)CC2C1` (stereo unspecified), the TGI was 1.37 µM in the assay on EKVX NSCLC; 1.45 µM in the assay with HCT-116 colon; 0.827 µM in the assay on K-562 leukemia; 1.98 µM in the assay with NCI-H226 lung; 1.18 µM with PC-3 prostate; 0.357 µM in the assay on SK-MEL-5 melanoma. The values for the TGI with SK-OV-3 ovarian, in the assay with SNB-19 CNS and in the assay on U251 CNS were 3.13 µM, 1.49 µM and 1.11 µM, respectively.
Regarding `COc1ccc(C[C@H]2COC(=O)[C@@H]2Cc2ccccc2)cc1OC`, the TGI in the assay on EKVX NSCLC, in the assay on HCT-116 colon, with K-562 leukemia, in the assay on NCI-H226 lung, in the assay on PC-3 prostate and with SK-MEL-5 melanoma was > 100 µM throughout. Also, the TGI in the assay with SK-OV-3 ovarian, in the assay with SNB-19 CNS and in the assay on U251 CNS was > 100 µM throughout.
Turning to `O=[N+]([O-])c1cccc([N+](=O)[O-])c1Cl`, the TGI in the assay on EKVX NSCLC is 46.4 µM; in the assay on HCT-116 colon, > 100 µM; with K-562 leukemia it was > 100 µM; in the assay on NCI-H226 lung, 68.4 µM; in the assay with PC-3 prostate, 38.7 µM; in the assay on SK-MEL-5 melanoma, 32.7 µM. In addition, the TGI in the assay on SNB-19 CNS stood at 33.2 µM; in the assay on U251 CNS, 25.8 µM; in the assay with UACC-62 melanoma, 42.9 µM.
For `O=c1cnc2cc3ccccc3cc2[nH]1`, the TGI in the assay with EKVX NSCLC, with HCT-116 colon, in the assay on K-562 leukemia, in the assay with NCI-H226 lung, in the assay on PC-3 prostate and in the assay on SK-MEL-5 melanoma was > 100 µM throughout. Further, the TGI in the assay on SK-OV-3 ovarian, in the assay with SNB-19 CNS and with U251 CNS was > 100 µM each time.
Turning to `OCC1c2ccccc2-n2nc(-c3ccccc3)c(O)c21` (stereo unspecified), the TGI with EKVX NSCLC is > 100 µM; with K-562 leukemia, 53 µM; in the assay on NCI-H226 lung, > 100 µM; in the assay on PC-3 prostate, 34.3 µM; with SK-MEL-5 melanoma, > 100 µM; with SK-OV-3 ovarian, > 100 µM. Besides, the TGI is > 100 µM with SNB-19 CNS, 52.8 µM in the assay on U251 CNS and 67.7 µM in the assay on UACC-62 melanoma.
Consider `CCOC(=O)c1c(SCCN2CCCCC2)n(-c2ccccc2)c(=S)n(-c2ccccc2)c1=O`, for which the TGI was 4.89 µM in the assay with HCT-116 colon; 11 µM in the assay with K-562 leukemia; 16.9 µM with NCI-H226 lung; 27.7 µM in the assay on PC-3 prostate; 29.7 µM in the assay on SK-MEL-5 melanoma; > 100 µM in the assay on SK-OV-3 ovarian. The TGI with SNB-19 CNS is > 100 µM; with U251 CNS, > 68.2 µM; in the assay on UACC-62 melanoma, 68.9 µM.
